Experimental data reported in PubChem BioAssay AID2060611 (Molecular Pharmacology Branch, DTP, NCI, 2025).
pIC50: −log10 of the molar value. Several values for one entry are separate records, joined by “and”; a condition that tells them apart may be missing. Equal values may be shown once.

System: 628569-122-R-J1-PDC complex spheroid viability
Test: Anticancer human tumor 628569-122-R-J1-PDC patient-derived head and neck squamous carcinoma cell line growth inhibition [CLK]
Settings: for viability, T/C: stronger effect = lower value
Method in brief: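 Multi-cell-type spheroids combined patient-derived tumor cells with HUVEC endothelial cells and human mesenchymal stem cells. Paired agents were dosed in half-log steps down from about clinical Cmax, or from 10 microM where Cmax was unknown.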

[1] = curve of first compound, second compound 0.0316 µM
[2] = curve of first compound, second compound 0.1 µM
[3] = curve of first compound, second compound 0.316 µM
[4] = curve of first compound, second compound 1 µM
[5] = curve of first compound, second compound 3.16 µM
[6] = curve of first compound, second compound 10 µM
[7] = second compound 0.0316 µM, first compound 0.0316 µM
[8] = second compound 0.0316 µM, first compound 0.1 µM
[9] = second compound 0.0316 µM, first compound 0.316 µM
[10] = second compound 0.0316 µM, first compound 1 µM
[11] = second compound 0.0316 µM, first compound 3.16 µM
[12] = second compound 0.0316 µM, first compound 10 µM
[13] = second compound 0.1 µM, first compound 0.0316 µM
[14] = second compound 0.1 µM, first compound 0.1 µM
[15] = second compound 0.1 µM, first compound 0.316 µM
[16] = second compound 0.1 µM, first compound 1 µM
[17] = second compound 0.1 µM, first compound 3.16 µM
[18] = second compound 0.1 µM, first compound 10 µM
[19] = second compound 0.316 µM, first compound 0.0316 µM
[20] = second compound 0.316 µM, first compound 0.1 µM
[21] = second compound 0.316 µM, first compound 0.316 µM
[22] = second compound 0.316 µM, first compound 1 µM
[23] = second compound 0.316 µM, first compound 3.16 µM
[24] = second compound 0.316 µM, first compound 10 µM
[25] = second compound 1 µM, first compound 0.0316 µM
[26] = second compound 1 µM, first compound 0.1 µM
[27] = second compound 1 µM, first compound 0.316 µM
[28] = second compound 1 µM, first compound 1 µM
[29] = second compound 1 µM, first compound 3.16 µM
[30] = second compound 1 µM, first compound 10 µM
[31] = second compound 3.16 µM, first compound 0.0316 µM
[32] = second compound 3.16 µM, first compound 0.1 µM
[33] = second compound 3.16 µM, first compound 0.316 µM
[34] = second compound 3.16 µM, first compound 1 µM
[35] = second compound 3.16 µM, first compound 3.16 µM
[36] = second compound 3.16 µM, first compound 10 µM
[37] = second compound 10 µM, first compound 0.0316 µM
[38] = second compound 10 µM, first compound 0.1 µM
[39] = second compound 10 µM, first compound 0.316 µM
[40] = second compound 10 µM, first compound 1 µM
[41] = second compound 10 µM, first compound 3.16 µM
[42] = second compound 10 µM, first compound 10 µM
[43] = second compound 0.0316 µM, first compound 0.00316 µM
[44] = second compound 0.0316 µM, first compound 0.01 µM
[45] = second compound 0.1 µM, first compound 0.00316 µM
[46] = second compound 0.1 µM, first compound 0.01 µM
[47] = second compound 0.316 µM, first compound 0.00316 µM
[48] = second compound 0.316 µM, first compound 0.01 µM
[49] = second compound 1 µM, first compound 0.00316 µM
[50] = second compound 1 µM, first compound 0.01 µM
[51] = second compound 3.16 µM, first compound 0.00316 µM
[52] = second compound 3.16 µM, first compound 0.01 µM
[53] = second compound 10 µM, first compound 0.00316 µM
[54] = second compound 10 µM, first compound 0.01 µM
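Further: spheroids exposed to agents for seven days before readout.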
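Wherever viability, T/C is given: 100% = DMSO vehicle control viability.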

`Nc1ccn(C2OC(CO)C(O)C2(F)F)c(=O)n1` (stereo not given) + CN1CCN(c2cc(C(=O)Nc3cc4cc(-c5cnn(C)c5)ccc4cn3)ccn2)CC1 showed a pIC50 [1] of under 5.00, a pIC50 [2] of under 5.00 and a pIC50 [3] of over 7.50. For the same compound, the pIC50 [4] was over 7.50, the pIC50 [5] was over 7.50 and the pIC50 [6] was over 7.50. For the same compound, the viability, T/C [7] was 71.5%, the viability, T/C [8] was 57.1% and the viability, T/C [9] was 55.4%. The viability, T/C [10] was 58.4%, the viability, T/C [11] was 59% and the viability, T/C [12] was 62.9%. The viability, T/C [13] was 58.3%, the viability, T/C [14] was 48.6% and the viability, T/C [15] was 52.9%. The viability, T/C [16] was 56.8%, the viability, T/C [17] was 51.9% and the viability, T/C [18] was 65.2%. It also gave a viability, T/C [19] of 28.5%, a viability, T/C [20] of 31.5% and a viability, T/C [21] of 23.9%. For the same compound, the viability, T/C [22] was 35.1%, the viability, T/C [23] was 36.1% and the viability, T/C [24] was 29.3%. For the same compound, the viability, T/C [25] was 5.39%, the viability, T/C [26] was 3.49% and the viability, T/C [27] was 4.39%. It also gave a viability, T/C [28] of 4.7%, a viability, T/C [29] of 3.75% and a viability, T/C [30] of 3.77%. The viability, T/C [31] was 8.67%, the viability, T/C [32] was 5.79% and the viability, T/C [33] was 7.19%. For the same compound, the viability, T/C [34] was 5%, the viability, T/C [35] was 7.97% and the viability, T/C [36] was 3.35%. For the same compound, the viability, T/C [37] was 4.52%, the viability, T/C [38] was 4.25% and the viability, T/C [39] was 3.92%. It also gave a viability, T/C [40] of 6.65%, a viability, T/C [41] of 2.05% and a viability, T/C [42] of 1.36%.
With `C=CC(=O)N1CCN(c2nc(=O)n(-c3c(C)ccnc3C(C)C)c3nc(-c4c(O)cccc4F)c(F)cc23)C(C)C1` (stereo not given) the viability, T/C (compound 0.0316 µM) was 88.8% and 84.2%, the viability, T/C (compound 0.1 µM) was 95.5% and 87.3% and the viability, T/C (compound 0.316 µM) was 92.8% and 92.9%. For the same compound, the viability, T/C (compound 1 µM) was 113% and 101%, the viability, T/C (compound 3.16 µM) was 124% and 132% and the viability, T/C (compound 10 µM) was 118% and 124%. For the same compound, the pIC50 (curve of compound) was under 5.00.
In the case of `Cn1ncnc1[C@H]1c2n[nH]c(=O)c3cc(F)cc(c23)N[C@@H]1c1ccc(F)cc1` + CNC(=O)c1ccc(Nc2nc(OC3CCCC3)c3c(-c4ccc5nc(C)oc5c4)c[nH]c3n2)c(OC)c1, the pIC50 [1] was under 7.00, the pIC50 [2] was 7.42 and the pIC50 [3] was 8.82. The pIC50 [4] was over 9.50, the pIC50 [5] was over 9.50 and the pIC50 [6] was over 9.50. It also gave a viability, T/C (second compound 0.0316 µM, first compound 0.000316 µM) of 86.7%, a viability, T/C (second compound 0.0316 µM, first compound 0.001 µM) of 90.1% and a viability, T/C [43] of 82.7%. It also gave a viability, T/C [44] of 71.3%, a viability, T/C [7] of 78% and a viability, T/C [8] of 64.9%. The viability, T/C (second compound 0.1 µM, first compound 0.000316 µM) was 61.4%, the viability, T/C (second compound 0.1 µM, first compound 0.001 µM) was 53.4% and the viability, T/C [45] was 60.1%. It also gave a viability, T/C [46] of 53.7%, a viability, T/C [13] of 51% and a viability, T/C [14] of 45.9%. The viability, T/C (second compound 0.316 µM, first compound 0.000316 µM) was 47.7%, the viability, T/C (second compound 0.316 µM, first compound 0.001 µM) was 48.4% and the viability, T/C [47] was 51.9%. The viability, T/C [48] was 54.4%, the viability, T/C [19] was 54.5% and the viability, T/C [20] was 39.6%. For the same compound, the viability, T/C (second compound 1 µM, first compound 0.000316 µM) was 43.9%, the viability, T/C (second compound 1 µM, first compound 0.001 µM) was 39.5% and the viability, T/C [49] was 48.1%. For the same compound, the viability, T/C [50] was 39%, the viability, T/C [25] was 40.1% and the viability, T/C [26] was 40.2%. It also gave a viability, T/C (second compound 3.16 µM, first compound 0.000316 µM) of 37.5%, a viability, T/C (second compound 3.16 µM, first compound 0.001 µM) of 45.5% and a viability, T/C [51] of 48.5%. For the same compound, the viability, T/C [52] was 41.5%, the viability, T/C [31] was 37.7% and the viability, T/C [32] was 34.3%. It also gave a viability, T/C (second compound 10 µM, first compound 0.000316 µM) of 47.4%, a viability, T/C (second compound 10 µM, first compound 0.001 µM) of 39.6% and a viability, T/C [53] of 41.4%. It also gave a viability, T/C [54] of 36.7%, a viability, T/C [37] of 38% and a viability, T/C [38] of 31.3%.
Compound `Nc1ccccc1NC(=O)c1ccc(CNC(=O)OCc2cccnc2)cc1` + CNC(=O)c1ccc(Nc2nc(OC3CCCC3)c3c(-c4ccc5nc(C)oc5c4)c[nH]c3n2)c(OC)c1 has a pIC50 [1] of 5.04, a pIC50 [2] of under 5.00 and a pIC50 [3] of under 5.00. The pIC50 [4] was 6.74, the pIC50 [5] was 5.48 and the pIC50 [6] was 7.50. It also gave a viability, T/C [7] of 97.7%, a viability, T/C [8] of 114% and a viability, T/C [9] of 125%. It also gave a viability, T/C [10] of 138%, a viability, T/C [11] of 101% and a viability, T/C [12] of 45.6%. For the same compound, the viability, T/C [13] was 59.1%, the viability, T/C [14] was 55% and the viability, T/C [15] was 61.9%. It also gave a viability, T/C [16] of 83.7%, a viability, T/C [17] of 102% and a viability, T/C [18] of 32.3%. For the same compound, the viability, T/C [19] was 50.8%, the viability, T/C [20] was 51% and the viability, T/C [21] was 49%. It also gave a viability, T/C [22] of 73.3%, a viability, T/C [23] of 94.1% and a viability, T/C [24] of 22.5%. It also gave a viability, T/C [25] of 42.9%, a viability, T/C [26] of 48.7% and a viability, T/C [27] of 47.4%. It also gave a viability, T/C [28] of 60.4%, a viability, T/C [29] of 81.8% and a viability, T/C [30] of 12.5%. The viability, T/C [31] was 44.6%, the viability, T/C [32] was 45.5% and the viability, T/C [33] was 45.8%. It also gave a viability, T/C [34] of 56.5%, a viability, T/C [35] of 67.3% and a viability, T/C [36] of 7.27%. The viability, T/C [37] was 48.6%, the viability, T/C [38] was 41.5% and the viability, T/C [39] was 44.2%. It also gave a viability, T/C [40] of 54.3%, a viability, T/C [41] of 57.6% and a viability, T/C [42] of 4.45%.
`COc1c(OCCCN2CCOCC2)ccc2c3n(c(=NC(=O)c4cnc(N)nc4)nc12)CCN3` + CNC(=O)c1ccc(Nc2nc(OC3CCCC3)c3c(-c4ccc5nc(C)oc5c4)c[nH]c3n2)c(OC)c1 gave a pIC50 [1] of 7.63, a pIC50 [2] of over 8.50 and a pIC50 [3] of over 8.50. It also gave a pIC50 [4] of over 8.50, a pIC50 [5] of over 8.50 and a pIC50 [6] of over 8.50. It also gave a viability, T/C [43] of 83.1%, a viability, T/C [44] of 66.5% and a viability, T/C [7] of 43.5%. For the same compound, the viability, T/C [8] was 25.6%, the viability, T/C [9] was 20.6% and the viability, T/C [10] was 5.3%. For the same compound, the viability, T/C [45] was 46.8%, the viability, T/C [46] was 46.2% and the viability, T/C [13] was 28.7%. The viability, T/C [14] was 22%, the viability, T/C [15] was 19.6% and the viability, T/C [16] was 8.28%. It also gave a viability, T/C [47] of 48.3%, a viability, T/C [48] of 47.7% and a viability, T/C [19] of 29.8%. It also gave a viability, T/C [20] of 17.1%, a viability, T/C [21] of 16.2% and a viability, T/C [22] of 6.59%. It also gave a viability, T/C [49] of 37.8%, a viability, T/C [50] of 34.3% and a viability, T/C [25] of 27.3%. For the same compound, the viability, T/C [26] was 23.5%, the viability, T/C [27] was 13.9% and the viability, T/C [28] was 3.21%. It also gave a viability, T/C [51] of 41.6%, a viability, T/C [52] of 34.7% and a viability, T/C [31] of 27.4%. The viability, T/C [32] was 15.4%, the viability, T/C [33] was 5.46% and the viability, T/C [34] was 3.02%. For the same compound, the viability, T/C [53] was 37.5%, the viability, T/C [54] was 28.5% and the viability, T/C [37] was 30.3%. For the same compound, the viability, T/C [38] was 12.8%, the viability, T/C [39] was 21.6% and the viability, T/C [40] was 7.07%.
